# According to US4016159A, “Acylamino-cephem-carboxylic acids containing an amidino or guanidino group in the molecule” (Hoechst Aktiengesellschaft, priority 1973, dated 1977):
# Like-named read-outs stand apart in the source and are kept apart here.
# Key:
# Format in all cases: cell-based
# [1] = test system: Proteus mirabilis; assay: Minimum inhibition concentration (MIC), Table 2; design: Minimum inhibition concentration (MIC): unit not given here; conditions: for MIC: read-out: Minimum inhibition concentration (MIC)
# Description: Minimum inhibition concentration (MIC) in /ml
# [2] = test system: Staphylococcus aureus 285; assay: Minimum inhibition concentration (MIC), Table 1; conditions: for MIC: Staphylococcus aureus, 285, Germ: Staphylococcus aureus 285, read-out: Minimum inhibition concentration (MIC); for Minimum inhibition concentration (MIC): Germ: Staphylococcus aureus 285
# Description: (§1) Minimum inhibition concentration (MIC) in γ/ml
# Germ: Staphylococcus aureus 285
# [3] = test system: Staphylococcus aureus SG 511; assay: Minimum inhibition concentration (MIC), Table 5; conditions: Staphylococcus aureus
# Description: as §1
# Germ: Staphylococcus aureus SG 511
# [4] = test system: Streptococcus D; assay: Minimum inhibition concentration (MIC), Table 4; conditions: for MIC: Streptococcus, read-out: Minimum inhibition concentration (MIC)
# Description: as §1
# [5] = test system: Streptococcus pyogenes A; assay: Minimum inhibition concentration (MIC), Table 3; conditions: for MIC: read-out: Minimum inhibition concentration MIC
# Description: Minimum inhibition concentration MIC in γ/ml
# Germ: Streptococcus pyogenes A
# [6] = SG511, Germ: Staphylococcus aureus SG 511, read-out: Minimum inhibition concentration (MIC)
Compound,MIC ([1]; Germ: Proteus mirabilis) [mg/L],MIC [2] [mg/L],"MIC [3, 6] [mg/L]",MIC ([4]; Germ: Streptococcus D) [mg/L],MIC ([5]; Germ: Streptococcus pyogenes A) [mg/L],further results
"Cc1nnc(SCC2=C(C(=O)O)N3C(=O)C(NC(=O)Cc4ccc(C5=NCCCN5)cc4)C3SC2)n1N (centres unmarked) [Example 101, 3-[(4-amino-5-methyl-1,2,4-triazole-3-yl)-thiomethyl]-7-[4-(1,4,5,6-tetrahydropyrimide-2-yl)-phenylacetamido]-Δ3-cephem-4-carboxylic acid]",25,0.5 to 1.25,,,,
"N=C(N)c1ccc(CC(=O)NC2C(=O)N3C(C(=O)O)=C(CSc4nc[nH]n4)CSC23)cc1 (centres unmarked) [Example 24, 3-[(1,2,4-triazole-3-yl)-thiomethyl]-7-(4-amidino-phenylacetamido)-Δ3-cephem-4-carboxylic acid]",25,0.5 to 1.25,,,,
"Cc1nnc(SCC2=C(C(=O)O)N3C(=O)[C@@H](NC(=O)Cn4cnnn4)[C@H]3SC2)s1 [Cephazolin-Na, reference compound]",25,,0.25,,0.03,
"Cc1nnc(SCC2=C(C(=O)O)N3C(=O)C(NC(=O)Cc4ccc(C5=NCCN5)cc4)C3SC2)s1 (centres unmarked) [Example 12, 3-[(5-methyl-1,3,4-thiadiazole-2-yl)-thiomethyl]-7-[4-(imidazoline-2-yl)-phenylacetamido]-Δ 3-cephem-4-carboxylic acid]",3.1 to 12.5,0.156 to 0.391,,0.196 to 6.25,0.008 to 0.0156,
"CC1=C(C(=O)O)N2C(=O)[C@@H](NC(=O)[C@H](N)c3ccccc3)[C@H]2SC1 [Cephalexin, reference compound]",,,,,,"MIC ([1]; Proteus mirabilis): 25 mg/L; MIC ([3]; SG511, read-out: Minimum inhibition concentration (MIC)): 1.25 mg/L; MIC [4]: 100 mg/L; MIC ([5]; Streptococcus pyogenes): 0.156 mg/L"
"Cc1nnc(SCC2=C(C(=O)O)N3C(=O)C(NC(=O)Cc4ccc(C(=N)N)s4)C3SC2)s1 (centres unmarked) [Example 2, 3-[(5-methyl-1,3,4-thiadiazole-2-yl)-thiomethyl]-7-(5-amidinothienylacetamido)-Δ-3-cephem-4-carboxylic acid]",25,0.156 to 0.391,,10 to 50,0.008 to 0.0156,
"O=C(Cc1ccc(C2=NCCCN2)cc1)NC1C(=O)N2C(C(=O)O)=C(CSc3nnc[nH]3)CSC12 (centres unmarked) [Example 94, 3-[(triazole-2-yl)-thiomethyl]-7-[4-(1,4,5,6-tetrahydro-pyrimide-2-yl)-phenylacetamido]-Δ3-cephem-4-carboxylic acid]",,,,,,Minimum inhibition concentration (MIC) ([1]; Germ: Proteus mirabilis): 25; Minimum inhibition concentration (MIC) [2]: 1.6 to 2.5 mg/L; Minimum inhibition concentration (MIC) ([4]; Germ: Streptococcus D): 10 to 50 mg/L; Minimum inhibition concentration (MIC) ([5]; Germ: Streptococcus pyogenes A): 0.008 to 0.0156 mg/L
"O=C(Cc1ccc(C2=NCCCN2)cc1)NC1C(=O)N2C(C(=O)O)=C(CSc3nc(-c4ccccc4)cs3)CSC12 (centres unmarked) [Example 14, 3-[(4-phenyl-thiazole-2-yl)-thiomethyl]-7-[4-(1,4,5,6-tetrahydropyrimide-2-yl)-phenylacetamido]-Δ 3-cephem-4-carboxylic acid]",,0.5 to 1.25,0.0625 to 0.078,10 to 50,0.008 to 0.0156,

# More lines, main results first:
MIC ([1]; Germ: Proteus mirabilis) [mg/L],MIC [2] [mg/L],"MIC [3, 6] [mg/L]",MIC ([4]; Germ: Streptococcus D) [mg/L],MIC ([5]; Germ: Streptococcus pyogenes A) [mg/L],Compound,further results
,0.156 to 0.391,0.0625 to 0.078,10 to 50,0.000391 to 0.0078,"CCCCCCNC(=N)c1ccc(OCC(=O)NC2C(=O)N3C(C(=O)O)=C(CSc4nnc(C)o4)CSC23)cc1 (centres unmarked) [Example 32, 3-[(5-methyl-1,3,4-oxadiazole-2-yl)-thiomethyl]-7-[4-(N-n-hexylamidino)-phenoxyacetamido]-Δ 3-cephem-4-carboxylic acid]",
,,0.0625 to 0.078,,,"O=C(Cc1ccc(C2=NCCCN2)cc1)NC1C(=O)N2C(C(=O)O)=C(CSc3nnc(-c4ccccc4)o3)CSC12 (centres unmarked) [Example 103, 3-[(5-phenyl-1,3,4-oxadiazole-2-yl)-thiomethyl]-7-[4-(1,4,5,6-tetrahydropyrimide-2-yl)-phenylacetamido]-Δ3-cephem-4-carboxylic acid]",Minimum inhibition concentration (MIC) [2]: 0.156 to 0.391 mg/L; Minimum inhibition concentration (MIC) ([4]; Germ: Streptococcus D): 10 to 50 mg/L; Minimum inhibition concentration (MIC) ([5]; Germ: Streptococcus pyogenes A): 0.000391 to 0.0078 mg/L
,0.156 to 0.391,0.0625 to 0.078,10 to 50,0.000391 to 0.0078,"Cc1nsc(SCC2=C(C(=O)O)N3C(=O)C(NC(=O)Cc4ccc(C5=NCCCN5)cc4)C3SC2)n1 (centres unmarked) [Example 108, 3-[(3-methyl-1,2,4-thiadiazole-5-yl)-thiomethyl]-7-[4-(1,4,5,6-tetrahydropyrimide-22-yl)-phenylacetamido]-Δ3-cephem-4-carboxylic acid]",
,0.156 to 0.391,0.0196 to 0.0391,10 to 50,0.000391 to 0.0078,"N=C(N)c1ccc(CC(=O)NC2C(=O)N3C(C(=O)O)=C(CSc4nnc(-c5ccccc5)o4)CSC23)cc1 (centres unmarked) [Example 56, 3-[(5-phenyl-1,3,4-oxadiazole-2-yl)-thiomethyl]-7-(4-amidinophenylacetamido)-Δ 3-cephem-4-carboxylic acid]",
,0.156 to 0.391,0.0625 to 0.078,10 to 50,0.000391 to 0.0078,"O=C(Cc1ccc(C2=NCCCN2)cc1)NC1C(=O)N2C(C(=O)O)=C(CSc3nc4ccccc4o3)CSC12 (centres unmarked) [Example 109, 3-[(benzoxazole-2-yl)-thiomethyl]-7-[4-(1,4,5,6-tetrahydropyrimide-2-yl)-phenylacetamido]-Δ3-cephem-4-carboxylic acid]",
